In US20160257697A1, “THIOPHENE-SUBSTITUTED TETRACYCLIC COMPOUNDS AND METHODS OFUSE THEREOF FOR THE TREATMENT OF VIRAL DISEASES” (priority 2013, published 2016):
Like-named read-outs stand apart in the source and are kept apart here.

Tests used:
Test in all cases: microbe, parasite or virus in culture
Type in all cases: cell-based, Hepatitis C virus (HCV)
HCV replicon 1AY93H = conditions: Replicon Assay A
Outline: (§1)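 Replicon cells incubated with compound for 3 days in medium with 5% FBS and 0.5% DMSO final. Replicon RNA measured in lysates by multiplex real-time RT-PCR (Neo set) against cyclophilin control, quantified from standard curves of Ct versus log ng replicon total RNA.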

HCV replicon 1A = conditions: Replicon Assay A
Outline: as §1

HCV replicon 2B = conditions: Replicon Assay A
Outline: as §1

HCV replicon 1AQ30D = conditions: Replicon Assay B
HCV replicon 1B = conditions: Replicon Assay B
[1] = read-out: 1A Y93H IC50, HCV replicon 1A Y93H
[2] = read-out: 2B IC50, HCV replicon 2B
[3] = read-out: 1A Q30D IC50, HCV replicon 1A Q30D
[4] = read-out: 1A Y93H IC50, replicon 1AY93H
[5] = Hepatitis C virus, read-out: 1A Q30D IC50 (nM), replicon 1AQ30D
[6] = Hepatitis C virus, read-out: 1A Y93H IC50 (nM), replicon 1AY93H
[7] = Hepatitis C virus, read-out: 2B IC50 (nM), replicon 2B

Row | SMILES | IC50 (HCV replicon 1AY93H; [4]) | IC50 (HCV replicon 2B; read-out: 2B IC50, replicon 2B) | IC50 (HCV replicon 1AQ30D; [5]) | IC50 (HCV replicon 1B; Hepatitis C virus, replicon 1B) | IC50 (HCV replicon 1A; Hepatitis C virus, replicon 1A) | also measured
1 | COC(=O)N[C@H](C(=O)N1CCC[C@H]1c1ncc(-c2cc(F)c3c(c2)OC(c2cc4c(s2)CCC4)n2c-3cc3cc(-c4cnc([C@@H]5C[C@H]6C[C@H]6N5C(=O)[C@@H](NC(=O)OC)C5CCOCC5)[nH]4)ccc32)[nH]1)C(C)C (single isomer, unassigned) [Compound 542] | – | – | – | – | – | IC50 (HCV replicon 1AY93H; [1]): 0.00855 nM; IC50 (HCV replicon 1A; HCV replicon 1A): 3.42 pM; IC50 (HCV replicon 2B; [2]): 0.0335 nM; IC50 (HCV replicon 1AQ30D; [3]): 0.162 nM; IC50 (HCV replicon 1B; HCV replicon 1B): 3.71 pM
2 | COC(=O)N[C@H](C(=O)N1CCC[C@H]1c1ncc(-c2cc(F)c3c(c2)OC(c2ccc(C(=O)N(C)C)s2)n2c-3cc3cc(-c4cnc([C@@H]5CCCN5C(=O)[C@@H](NC(=O)OC)C(C)C)[nH]4)ccc32)[nH]1)C(C)C (single isomer, unassigned) [Compound 104] | 0.046 nM | 0.073 nM | 1.11 nM | 5.1 pM | – | IC50 (HCV replicon 1A; replicon 1A): 4.3 pM
3 | CCc1ccc(C2Oc3cc(-c4cnc([C@@H]5CCCN5C(=O)[C@@H](NC(=O)OC)C(C)C)[nH]4)cc(F)c3-c3cc4cc(-c5cnc([C@@H]6CCCN6C(=O)[C@H](NC(=O)OC)C6COCC(C)(C)C6)[nH]5)ccc4n32)s1 (stereo partly drawn) [Compound 150] | – | – | 0.094 nM | 1.9 pM | 2.4 pM | IC50 (HCV replicon 1AY93H; [6]): 0.004 nM; IC50 (HCV replicon 2B; [7]): 0.007 nM
4 | COC(=O)N[C@H](C(=O)N1CCC[C@H]1c1ncc(-c2cc(F)c3c(c2)OC(c2ccc(CC4CC4)s2)n2c-3cc3cc(-c4cnc([C@@H]5C[C@H]6C[C@H]6N5C(=O)[C@@H](NC(=O)OC)C(C)C)[nH]4)ccc32)[nH]1)C(C)C (single isomer, unassigned) [Compound 389] | 0.0137 nM | 0.0691 nM | 0.23 nM | 3.9 pM | 2.7 pM | –
5 | COC(=O)NC(C(=O)N1CCCC1c1ncc(-c2cc(F)c3c(c2)OC(c2ccc(C4CC4)s2)n2c-3cc3cc(-c4cnc(C5CCCN5C(=O)C(NC(=O)OC)C5CCOC(C)C5)[nH]4)ccc32)[nH]1)C(C)C (mixture of isomers) [Compound 849] | – | – | – | – | – | IC50 (HCV replicon 1A; HCV replicon 1A): 2.3 pM; IC50 (HCV replicon 2B; HCV replicon 2B, read-out: 2B IC50): 0.005 nM; IC50 (HCV replicon 1AQ30D; HCV replicon 1A Q30D, read-out: 1A Q30D IC50): 0.029 nM; IC50 (HCV replicon 1B; HCV replicon 1B): 2.9 pM
6 | COC(=O)NC(C(=O)N1CCC[C@H]1c1ncc(-c2ccc3c(c2)cc2n3C(c3ccc(CC4CC4)s3)Oc3cc(-c4cnc([C@@H]5CCCN5C(=O)[C@@H](NC(=O)OC)C(C)C)[nH]4)cc(F)c3-2)[nH]1)C1CCOC(C)(C)C1 (single isomer, unassigned) [Compound 410] | – | – | – | – | – | IC50 (HCV replicon 1AY93H; [1]): 0.0034 nM; IC50 (HCV replicon 2B; [2]): 0.0041 nM; IC50 (HCV replicon 1AQ30D; [3]): 0.106 nM; IC50 (HCV replicon 1B; HCV replicon 1B): 3.3 pM
7 | COC(=O)N[C@H](C(=O)N1CCC[C@H]1c1ncc(-c2cc(F)c3c(c2)OC(c2ccc(C4CC4)s2)n2c-3cc3cc(-c4cnc([C@@H]5C[C@H]6C[C@H]6N5C(=O)[C@@H](NC(=O)OC)C5CCOCC5)[nH]4)ccc32)[nH]1)C(C)C (stereo partly drawn) [Compound 653] | – | – | – | – | – | IC50 (HCV replicon 1AY93H; Hepatitis C virus, read-out: 1A Y93H IC50, HCV replicon 1A Y93H): 0.00135 nM; IC50 (HCV replicon 2B; Hepatitis C virus, read-out: 2B IC50, HCV replicon 2B): 0.00144 nM; IC50 (HCV replicon 1AQ30D; Hepatitis C virus, read-out: 1A Q30D IC50, HCV replicon 1A Q30D): 0.00911 nM; IC50 (HCV replicon 1B; Hepatitis C virus, HCV replicon 1B): 1.55 pM
8 | COCC(C)(C)c1ccc(C2Oc3cc(-c4cnc([C@@H]5CCCN5C(=O)[C@@H](NC(=O)OC)C(C)C)[nH]4)cc(F)c3-c3cc4cc(-c5cnc([C@@H]6CCCN6C(=O)[C@@H](NC(=O)OC)C(C)C)[nH]5)ccc4n32)s1 (single isomer, unassigned) [Compound 399] | 0.0145 nM | 0.274 nM | 0.292 nM | – | 2.7 pM | –
9 | COC(=O)N[C@H](C(=O)N1[C@@H]2C[C@@H]2C[C@H]1c1ncc(-c2cc(F)c3c(c2)OC(c2ccc(C4CC4)s2)n2c-3cc3cc(-c4cnc([C@@H]5C[C@H]6C[C@H]6N5C(=O)[C@@H](NC(=O)OC)C(C)C)[nH]4)ccc32)[nH]1)C(C)C (single isomer, unassigned) [Compound 88] | 0.007 nM | 0.59 nM | – | – | – | IC50 (HCV replicon 1AQ30D; read-out: 1A Q30D IC50, replicon 1AQ30D): 0.3 nM; IC50 (HCV replicon 1B; replicon 1B): 1.4 pM
10 | COC(=O)N[C@H](C(=O)N1CCC[C@H]1c1ncc(-c2cc(F)c3c(c2)OC(c2ccc(OC)s2)n2c-3cc3cc(-c4cnc([C@@H]5CCCN5C(=O)[C@@H](NC(=O)OC)C(C)C)[nH]4)ccc32)[nH]1)C(C)C (single isomer, unassigned) [Compound 20] | 0.014 nM | 0.051 nM | 0.38 nM | 1.1 pM | – | –
11 | COC(=O)N[C@H](C(=O)N1CCC[C@H]1c1ncc(-c2cc(F)c3c(c2)OC(c2ccc(C4CC4)s2)n2c-3cc3cc(-c4cnc([C@@H]5CCCN5C(=O)[C@@H](NC(=O)OC)C(C)C)[nH]4)ccc32)[nH]1)C(C)C (single isomer, unassigned) [Compound 5] | – | – | 28.3 nM | – | 4.6 pM | IC50 (HCV replicon 1AY93H; [6]): 0.95 nM; IC50 (HCV replicon 2B; [7]): 2.08 nM
